The results in this text go back to patent publication US7880010B2, “Crystalline forms of a dimethylphenyl compound” (Theravance, Inc., priority 2006, dated 2011).

In assay [1] the target is T1, hM4 muscarinic receptor (Homo sapiens, UniProt P08173).
T1 construct: expressed in transfected cells; host or cells: CHO
T1 sequence (P08173 1-479): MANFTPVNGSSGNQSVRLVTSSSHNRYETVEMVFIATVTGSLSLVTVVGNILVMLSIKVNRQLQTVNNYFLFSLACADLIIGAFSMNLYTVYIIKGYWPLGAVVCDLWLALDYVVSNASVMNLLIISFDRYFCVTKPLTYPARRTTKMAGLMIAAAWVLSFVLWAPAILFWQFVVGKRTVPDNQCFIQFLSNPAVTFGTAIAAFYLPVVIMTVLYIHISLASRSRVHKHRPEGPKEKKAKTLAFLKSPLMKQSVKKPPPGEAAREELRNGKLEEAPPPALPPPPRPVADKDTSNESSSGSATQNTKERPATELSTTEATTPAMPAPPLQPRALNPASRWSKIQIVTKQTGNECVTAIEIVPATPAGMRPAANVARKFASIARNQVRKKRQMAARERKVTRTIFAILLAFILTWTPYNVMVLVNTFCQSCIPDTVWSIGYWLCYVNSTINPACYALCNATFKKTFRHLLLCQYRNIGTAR
In words: Radioligand binding assay for muscarinic receptors ([3H]-NMS displacement). As to conditions: M4 muscarinic receptor subtype, CHO cell membranes, [3H]-NMS 1 nM. On the procedure:
(§1) CHO cell lines stably expressing cloned human hM1, hM2, hM3 and hM4 muscarinic receptor subtypes, respectively, were grown to near confluency in Hams F-12 media supplemented with 10% FBS and 250 μg/mL Geneticin. The cells were grown in a 5% CO2, 37° C. incubator and lifted with 2 mM EDTA in dPBS. Cells were collected by 5 minute centrifugation at 650×g, and cell pellets were either stored frozen at −80° C. or membranes were prepared immediately for use. For membrane preparation, cell pellets were resuspended in lysis buffer and homogenized with a Polytron PT-2100 tissue disrupter (Kinematica AG; 20 seconds×2 bursts). Crude membranes were centrifuged at 40,000×g for 15 minutes at 4° C. The membrane pellet was then resuspended with re-suspension buffer and homogenized again with the Polytron tissue disrupter. The protein concentration of the membrane suspension was determined by the method described in Lowry et al., 1951, Journal of Biochemistry, 193, 265. All membranes were stored frozen in aliquots at −80° C. or used immediately. Aliquots of prepared hM5 receptor membranes were purchased directly from PerkinElmer, Inc. (Wellesley, Mass.) and stored at −80° C. until use.
(§2) Radioligand binding assays for cloned muscarinic receptors were performed in 96-well microtiter plates in a total assay volume of 100 μL. CHO cell membranes stably expressing either the hM1, hM2, hM3, hM4 or hM5 muscarinic subtype were diluted in assay buffer to the following specific target protein concentrations (μg/well): 10 μg for hM1, 10-15 μg for hM2, 10-20 μg for hM3, 10-20 μg for hM4, and 10-12 μg for hM5 to get similar signals (cpm). The membranes were briefly homogenized using a Polytron tissue disrupter (10 seconds) prior to assay plate addition. Saturation binding studies for determining KD values of the radioligand were performed using L-[N-methyl-^3H]scopolamine methyl chloride ([^3H]-NMS) (TRK666, 84.0 Ci/mmol, Amersham Pharmacia Biotech, Buckinghamshire, England) at concentrations ranging from 0.001 nM to 20 nM. Displacement assays for determination of Ki values of test compounds were performed with [^3H]-NMS at 1 nM and eleven different test compound concentrations. The test compounds were initially dissolved to a concentration of 400 μM in dilution buffer and then serially diluted 5× with dilution buffer to final concentrations ranging from 10 pM to 100 μM. The addition order and volumes to the assay plates were as follows: 25 μL radioligand, 25 μL diluted test compound, and 50 μL membranes. Assay plates were incubated for 60 minutes at 37° C. Binding reactions were terminated by rapid filtration over GF/B glass fiber filter plates (PerkinElmer, Inc.) pre-treated in 1% BSA. Filter plates were rinsed three times with wash buffer (10 mM HEPES) to remove unbound radioactivity. The plates were then air-dried and 50 μL Microscint-20 liquid scintillation fluid (PerkinElmer, Inc.) were added to each well. The plates were then counted in a PerkinElmer Topcount liquid scintillation counter (PerkinElmer, Inc.). Binding data were analyzed by nonlinear regression analysis with the GraphPad Prism Software package (GraphPad Software, Inc., San Diego, Calif.) using the one-site competition model. Ki values for test compounds were calculated from observed IC50 values and the KD value of the radioligand using the Cheng-Prusoff equation (Cheng Y; Prusoff W H. (1973) Biochemical Pharmacology, 22(23):3099-108). […]

In assay [2] the target is T2, hM5 muscarinic receptor (Homo sapiens, UniProt P08912).
T2 construct: purchased PerkinElmer, Inc. (Wellesley, Mass.); host or cells: CHO cell membranes
T2 sequence (P08912 1-532): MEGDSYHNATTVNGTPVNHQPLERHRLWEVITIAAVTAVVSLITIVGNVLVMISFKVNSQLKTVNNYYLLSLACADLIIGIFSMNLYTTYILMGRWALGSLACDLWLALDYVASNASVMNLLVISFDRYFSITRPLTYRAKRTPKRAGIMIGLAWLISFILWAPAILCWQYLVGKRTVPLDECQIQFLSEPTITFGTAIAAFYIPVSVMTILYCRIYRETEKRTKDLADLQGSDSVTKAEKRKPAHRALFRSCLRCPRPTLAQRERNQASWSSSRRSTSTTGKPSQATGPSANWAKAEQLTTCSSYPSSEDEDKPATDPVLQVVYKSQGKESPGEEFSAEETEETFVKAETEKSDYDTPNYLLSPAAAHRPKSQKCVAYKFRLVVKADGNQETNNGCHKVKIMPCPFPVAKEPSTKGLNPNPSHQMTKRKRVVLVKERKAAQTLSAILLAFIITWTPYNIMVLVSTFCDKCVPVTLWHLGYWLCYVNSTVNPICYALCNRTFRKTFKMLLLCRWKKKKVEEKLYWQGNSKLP
Described as above. As to conditions: M5 muscarinic receptor subtype, CHO cell membranes, [3H]-NMS 1 nM. As to the method: as §1, §2

As usually defined, the Ki is the equilibrium dissociation constant of an inhibitor or competing ligand from its target. A low value points to higher affinity.

In the case of `Cc1cc(NC(=O)CCN2CCC(OC(=O)Nc3ccccc3-c3ccccc3)CC2)c(C)cc1CNC[C@H](O)c1ccc(O)c(NC=O)c1` [compound of formula I, biphenyl-2-ylcarbamic acid 1-[2-(4-{[(R)-2-(3-formylamino-4-hydroxyphenyl)-2-hydroxyethylamino]methyl}-2,5-dimethylphenylcarbamoyl)ethyl]-piperidin-4-yl ester], the inhibitory constant (Ki) in assay [1] and in assay [2] was under 10 nM throughout.
